Earlier results on 1 substance are cited in patent US6225288A, “Gamma-ketoacid dipeptides as inhibitors of caspase-3” (Merk Frosst Canada & Co., priority 2000, dated 2001).

One data set addresses T1, caspase-1 (Homo sapiens, UniProt P29466).
T1 sequence (P29466 120-297 limits assumed): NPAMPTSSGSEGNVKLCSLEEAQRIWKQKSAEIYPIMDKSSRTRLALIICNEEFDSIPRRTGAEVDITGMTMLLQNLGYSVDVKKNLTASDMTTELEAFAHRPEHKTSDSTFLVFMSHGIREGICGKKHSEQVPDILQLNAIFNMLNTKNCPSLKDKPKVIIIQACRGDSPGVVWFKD
T1 sequence (P29466 317-404 limits assumed): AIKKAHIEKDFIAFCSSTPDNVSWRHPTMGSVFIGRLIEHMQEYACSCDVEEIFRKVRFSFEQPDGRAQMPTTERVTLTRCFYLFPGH

The target of the next data set is T2, caspase-3 (Homo sapiens, UniProt P42574).
T2 sequence (P42574 29-175 limits assumed): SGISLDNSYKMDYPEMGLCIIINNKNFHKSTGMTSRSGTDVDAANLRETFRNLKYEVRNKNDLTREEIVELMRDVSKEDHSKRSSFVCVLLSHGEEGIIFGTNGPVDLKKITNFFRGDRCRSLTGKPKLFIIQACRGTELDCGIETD
T2 sequence (P42574 176-277 limits assumed): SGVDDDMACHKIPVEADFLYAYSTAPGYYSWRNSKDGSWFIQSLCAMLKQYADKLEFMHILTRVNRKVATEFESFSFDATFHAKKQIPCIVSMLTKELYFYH

As usually defined, the Ki is a dissociation constant, usually derived from enzyme kinetics or from competition with a known ligand. For the substance Ac-YVAD-CHO, the Ki was < 0.001 µM on caspase-1 and 12 µM at caspase-3.
